Legend:
Assay in all cases: biochemical
Set-up in all cases: DiscoverX KINOMEscan scanMAX competition binding panel, single concentration, percent of control; remaining binding: dose or concentration left out as unconfirmed
Conditions in all cases: KINOMEscan binding, percent of control; read-out: Table S4_SCANMAX REPORT - related to Fig. 1 / Percent Control
AAK1 = AAK1 (Homo sapiens, UniProt Q2M2I8)
ALK = ALK (Homo sapiens, UniProt Q9UM73)
ERBB2 = ERBB2 (Homo sapiens, UniProt P04626)
FES = FES (Homo sapiens, UniProt P07332)
Sequence of FES (P07332 whole entry): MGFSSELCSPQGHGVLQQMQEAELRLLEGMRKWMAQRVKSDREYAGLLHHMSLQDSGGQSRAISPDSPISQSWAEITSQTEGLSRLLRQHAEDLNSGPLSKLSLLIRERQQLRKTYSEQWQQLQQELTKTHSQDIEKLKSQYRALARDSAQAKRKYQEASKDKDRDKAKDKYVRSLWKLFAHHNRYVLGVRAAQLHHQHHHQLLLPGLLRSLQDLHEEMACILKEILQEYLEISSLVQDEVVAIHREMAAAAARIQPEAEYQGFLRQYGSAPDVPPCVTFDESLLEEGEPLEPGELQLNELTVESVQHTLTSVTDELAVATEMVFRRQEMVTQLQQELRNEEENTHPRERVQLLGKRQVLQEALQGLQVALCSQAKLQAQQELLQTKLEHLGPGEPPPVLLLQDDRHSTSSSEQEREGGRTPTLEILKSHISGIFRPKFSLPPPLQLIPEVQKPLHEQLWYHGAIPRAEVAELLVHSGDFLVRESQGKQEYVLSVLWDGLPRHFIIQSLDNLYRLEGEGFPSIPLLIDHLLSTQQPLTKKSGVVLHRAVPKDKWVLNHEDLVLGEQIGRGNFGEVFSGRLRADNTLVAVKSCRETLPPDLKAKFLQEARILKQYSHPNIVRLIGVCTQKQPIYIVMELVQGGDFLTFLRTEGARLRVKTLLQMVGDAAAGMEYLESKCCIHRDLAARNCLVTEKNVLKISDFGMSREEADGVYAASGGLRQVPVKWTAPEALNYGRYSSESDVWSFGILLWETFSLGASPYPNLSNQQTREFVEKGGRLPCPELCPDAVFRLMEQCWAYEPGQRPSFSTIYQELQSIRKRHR

MAK = MAK (Homo sapiens, UniProt P20794)
MAP3K2 = MAP3K2 (Homo sapiens, UniProt Q9Y2U5)
MELK = MELK (Homo sapiens, UniProt Q14680)
Sequence of MELK (Q14680 whole entry): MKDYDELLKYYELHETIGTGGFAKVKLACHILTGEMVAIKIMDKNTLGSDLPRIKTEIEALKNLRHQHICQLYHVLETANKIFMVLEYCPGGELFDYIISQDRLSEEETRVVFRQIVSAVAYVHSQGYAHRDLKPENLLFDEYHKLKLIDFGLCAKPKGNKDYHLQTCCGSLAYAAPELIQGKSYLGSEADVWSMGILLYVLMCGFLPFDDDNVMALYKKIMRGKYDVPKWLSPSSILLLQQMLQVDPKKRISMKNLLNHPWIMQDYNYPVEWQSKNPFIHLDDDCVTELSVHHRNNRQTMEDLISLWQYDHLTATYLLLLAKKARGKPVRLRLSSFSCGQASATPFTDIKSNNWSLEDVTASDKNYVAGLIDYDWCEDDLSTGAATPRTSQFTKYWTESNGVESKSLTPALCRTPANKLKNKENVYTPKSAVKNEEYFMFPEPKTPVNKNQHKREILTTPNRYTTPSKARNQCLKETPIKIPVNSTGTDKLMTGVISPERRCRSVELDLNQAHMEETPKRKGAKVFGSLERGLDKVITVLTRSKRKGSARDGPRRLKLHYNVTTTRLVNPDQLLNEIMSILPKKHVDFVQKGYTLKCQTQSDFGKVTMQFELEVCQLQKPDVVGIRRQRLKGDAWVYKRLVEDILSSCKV

MET(Y1235D) = MET(Y1235D) (Homo sapiens, UniProt P08581, Y1235D)
MLK2 = target: T1, MLK2 (Homo sapiens, UniProt Q02779)
T1 construct: gene MAP3K10

NEK4 = NEK4 (Homo sapiens, UniProt P51957)
PFTK1 = target: T2, PFTK1 (Homo sapiens, UniProt O94921)
T2 construct: gene CDK14
T2 sequence (O94921 whole entry): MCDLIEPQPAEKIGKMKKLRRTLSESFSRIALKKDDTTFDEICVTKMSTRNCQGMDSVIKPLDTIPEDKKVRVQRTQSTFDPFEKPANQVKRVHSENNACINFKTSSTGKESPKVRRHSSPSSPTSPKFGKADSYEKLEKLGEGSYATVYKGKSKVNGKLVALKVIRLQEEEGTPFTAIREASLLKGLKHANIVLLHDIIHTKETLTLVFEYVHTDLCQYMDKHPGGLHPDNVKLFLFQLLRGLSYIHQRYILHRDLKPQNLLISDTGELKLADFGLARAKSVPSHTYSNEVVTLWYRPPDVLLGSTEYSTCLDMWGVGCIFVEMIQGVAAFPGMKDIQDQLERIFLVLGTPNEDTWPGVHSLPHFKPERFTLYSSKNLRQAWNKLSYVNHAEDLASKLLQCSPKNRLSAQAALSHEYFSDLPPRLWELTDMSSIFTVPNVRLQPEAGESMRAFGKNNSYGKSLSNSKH

PKN2 = PKN2 (Homo sapiens, UniProt Q16513)
PRP4 = target: T3, PRP4 (Homo sapiens, UniProt Q13523)
T3 construct: gene PRPF4B

RET(V804L) = RET(V804L) (Homo sapiens, UniProt P07949, V804L)
RIPK1 = RIPK1 (Homo sapiens, UniProt Q13546)
Sequence of RIPK1 (Q13546 whole entry): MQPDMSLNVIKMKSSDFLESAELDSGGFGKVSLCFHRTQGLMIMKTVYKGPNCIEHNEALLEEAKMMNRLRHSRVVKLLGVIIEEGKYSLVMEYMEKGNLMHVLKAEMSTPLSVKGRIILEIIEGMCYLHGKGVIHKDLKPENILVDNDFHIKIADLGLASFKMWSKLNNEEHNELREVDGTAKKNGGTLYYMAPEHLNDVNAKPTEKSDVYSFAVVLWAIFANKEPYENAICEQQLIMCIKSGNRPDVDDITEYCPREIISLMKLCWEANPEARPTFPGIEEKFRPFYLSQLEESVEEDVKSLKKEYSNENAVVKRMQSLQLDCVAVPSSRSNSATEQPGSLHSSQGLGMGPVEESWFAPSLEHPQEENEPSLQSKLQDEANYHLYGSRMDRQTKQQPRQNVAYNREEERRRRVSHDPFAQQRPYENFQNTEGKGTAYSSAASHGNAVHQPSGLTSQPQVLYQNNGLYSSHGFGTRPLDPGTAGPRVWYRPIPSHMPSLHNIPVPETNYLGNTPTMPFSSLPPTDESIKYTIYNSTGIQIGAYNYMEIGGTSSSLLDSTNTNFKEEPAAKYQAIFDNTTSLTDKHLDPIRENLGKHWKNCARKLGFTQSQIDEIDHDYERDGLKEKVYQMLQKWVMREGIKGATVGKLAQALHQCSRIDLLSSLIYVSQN

[1] = target: T4, RSK1(Kin.Dom.1-N-terminal) (Homo sapiens, UniProt Q15418)
T4 construct: gene RPS6KA1; Kin.Dom.1-N-terminal

SLK = SLK (Homo sapiens, UniProt Q9H2G2)
TLK1 = TLK1 (Homo sapiens, UniProt Q9UKI8)
Sequence of TLK1 (Q9UKI8 whole entry): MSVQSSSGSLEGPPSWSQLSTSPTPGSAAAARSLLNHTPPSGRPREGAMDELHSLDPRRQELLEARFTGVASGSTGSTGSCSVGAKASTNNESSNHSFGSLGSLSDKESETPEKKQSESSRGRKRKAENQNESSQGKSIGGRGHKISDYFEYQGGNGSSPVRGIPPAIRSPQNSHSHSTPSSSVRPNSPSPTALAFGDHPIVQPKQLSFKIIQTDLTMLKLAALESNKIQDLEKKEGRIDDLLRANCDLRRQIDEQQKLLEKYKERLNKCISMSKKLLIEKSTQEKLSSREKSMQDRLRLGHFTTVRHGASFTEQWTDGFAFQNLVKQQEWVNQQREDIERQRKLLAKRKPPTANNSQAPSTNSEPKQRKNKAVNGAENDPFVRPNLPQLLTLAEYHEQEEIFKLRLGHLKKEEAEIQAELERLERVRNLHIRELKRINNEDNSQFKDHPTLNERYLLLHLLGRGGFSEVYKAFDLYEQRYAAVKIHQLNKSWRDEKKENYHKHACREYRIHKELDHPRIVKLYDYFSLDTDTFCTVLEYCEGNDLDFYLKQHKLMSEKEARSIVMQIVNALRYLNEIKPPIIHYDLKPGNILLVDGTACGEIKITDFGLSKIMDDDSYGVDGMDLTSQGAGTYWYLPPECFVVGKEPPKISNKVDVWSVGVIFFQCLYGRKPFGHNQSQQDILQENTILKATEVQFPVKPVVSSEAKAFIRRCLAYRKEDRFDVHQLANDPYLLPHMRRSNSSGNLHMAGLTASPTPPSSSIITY

Sequence of ALK (Q9UM73 whole entry): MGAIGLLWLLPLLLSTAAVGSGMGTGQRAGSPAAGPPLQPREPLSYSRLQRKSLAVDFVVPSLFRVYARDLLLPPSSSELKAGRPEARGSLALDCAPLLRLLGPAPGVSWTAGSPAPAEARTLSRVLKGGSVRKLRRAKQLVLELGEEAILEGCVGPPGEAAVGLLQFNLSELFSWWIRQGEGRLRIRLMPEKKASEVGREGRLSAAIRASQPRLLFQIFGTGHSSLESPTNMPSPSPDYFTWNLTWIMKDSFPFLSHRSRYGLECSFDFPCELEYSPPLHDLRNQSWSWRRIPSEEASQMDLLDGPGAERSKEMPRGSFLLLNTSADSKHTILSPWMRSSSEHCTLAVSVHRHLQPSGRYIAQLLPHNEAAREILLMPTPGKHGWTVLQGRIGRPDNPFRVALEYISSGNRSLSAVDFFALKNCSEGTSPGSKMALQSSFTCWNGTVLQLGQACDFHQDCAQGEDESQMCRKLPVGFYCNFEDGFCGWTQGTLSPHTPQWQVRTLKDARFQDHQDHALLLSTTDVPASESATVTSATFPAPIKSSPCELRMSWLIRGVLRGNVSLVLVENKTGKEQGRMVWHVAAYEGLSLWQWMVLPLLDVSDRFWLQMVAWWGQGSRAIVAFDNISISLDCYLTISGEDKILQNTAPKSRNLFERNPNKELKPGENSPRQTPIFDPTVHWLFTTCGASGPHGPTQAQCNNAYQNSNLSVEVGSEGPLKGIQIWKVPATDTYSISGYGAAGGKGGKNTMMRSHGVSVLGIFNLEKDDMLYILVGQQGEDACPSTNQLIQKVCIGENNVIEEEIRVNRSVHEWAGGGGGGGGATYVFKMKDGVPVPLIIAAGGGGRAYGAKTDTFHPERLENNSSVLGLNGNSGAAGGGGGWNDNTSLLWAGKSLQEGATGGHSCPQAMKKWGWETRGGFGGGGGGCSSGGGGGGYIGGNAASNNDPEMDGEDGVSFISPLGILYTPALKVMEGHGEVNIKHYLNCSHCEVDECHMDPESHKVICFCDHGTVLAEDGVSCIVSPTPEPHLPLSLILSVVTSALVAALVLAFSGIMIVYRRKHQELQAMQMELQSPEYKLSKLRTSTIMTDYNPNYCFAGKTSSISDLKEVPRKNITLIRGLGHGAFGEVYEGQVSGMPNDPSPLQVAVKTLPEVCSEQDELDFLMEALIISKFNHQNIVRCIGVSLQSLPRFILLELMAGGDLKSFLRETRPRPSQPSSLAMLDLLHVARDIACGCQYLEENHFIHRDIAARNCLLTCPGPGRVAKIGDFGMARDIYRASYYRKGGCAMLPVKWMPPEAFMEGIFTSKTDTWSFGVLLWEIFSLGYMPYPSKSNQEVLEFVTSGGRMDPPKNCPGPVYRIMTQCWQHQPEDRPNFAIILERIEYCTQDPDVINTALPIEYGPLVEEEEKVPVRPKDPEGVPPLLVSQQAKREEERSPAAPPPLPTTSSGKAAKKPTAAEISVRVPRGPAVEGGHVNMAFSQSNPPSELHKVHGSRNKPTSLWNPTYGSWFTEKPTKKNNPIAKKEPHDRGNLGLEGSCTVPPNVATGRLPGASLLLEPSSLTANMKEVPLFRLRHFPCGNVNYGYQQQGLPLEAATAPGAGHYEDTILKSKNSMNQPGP

Structure (SMILES): c1ccc2c(c1)Sc1ccccc1N2CCN1CCOCC1 [J54]
- remaining binding (AAK1): 80%
- remaining binding (ALK): 59%
- remaining binding (ERBB2): 100%
- remaining binding (FES): 100%
- remaining binding (MAK): 31%
- remaining binding (MAP3K2): 100%
- remaining binding (MELK): 84%
- remaining binding (MET(Y1235D)): 80%
- remaining binding (MLK2): 97%
- remaining binding (NEK4): 100%
- remaining binding (PFTK1): 100%
- remaining binding (PKN2): 69%
- remaining binding (PRP4): 74%
- remaining binding (RET(V804L)): 88%
- remaining binding (RIPK1): 84%
- remaining binding [1]: 100%
- remaining binding (SLK): 100%
- remaining binding (TLK1): 16%

Source: paper PMC7486443, “Generation of Phenothiazine with Potent Anti-TLK1 Activity for Prostate Cancer Therapy” (iScience, 2020)
